PMC5677254, “Design, Synthesis, and Characterization of N-Oxide-Containing Heterocycles with in Vivo Sterilizing Antitubercular Activity” (Journal of Medicinal Chemistry, 2017)
pIC50: −log10 of the molar value. Converted amounts (≈) assume the structure as drawn. “And” between values parts separate entries of the source, which are not always exact repeats. Equal entries are not always repeated. “Also recorded” adds a separate entry of the source. Where two headings read alike, the source gives them in different places.

What was measured:
human plasma = experiment: Plasma protein binding assay (rapid equilibrium dialysis); format: in vitro ADME; conditions: 5 µM, 4 h at 37°C
Procedure: (§1) In vitro hydrolysis was performed by HPLC method using a Shimadzu HPLC model CBMH20A (Shimadzu®) and an Agilent® Eclipse XDB C18 column (250 × 4.6 mm, 5 µm). The isocratic flow was 60:40 (water:acetonitrile, v/v) and the flow rate was 1.0 mL/min. The volume injected was 20.0 µL and the wavelength in the detector (UVHVIS) was 210 nm. […]
(§2) of 100 µg/mL. This solution was then diluted to 20 µg/mL using two different PBS buffers to provide the following pH values: 5.5 and 7.4. During the assay, all samples were maintained at constant agitation using a shaker (400 rpm) at 37°C. The aliquots were taken from the solution at the following times: 0, 1, 2, 4, 8, 10, 20, and 24 h. All analyses were conducted in triplicate, and the results were expressed as the averages of the concentrations in percentages (±standard error of the […]
(§3) Plasma Protein Binding Assay […]
of the mixture in a RED (Rapid Equilibrium Dialysis, Pierce) device against PBS and incubated on an orbital shaker for 4 h at 37°C. Aliquots from plasmaH and PBSHbased samples were collected, an equal volume of PBS was added to the plasma sample, and an equal volume of plasma was added to the PBS sample. […] The samples were centrifuged and the supernatant was recovered and analyzed by Liquid chromatography–mass spectrometry (LCHMS)/MS. […]

[1] = system: Candida albicans (ATCC 10231); experiment: Spectrum of activity, OD570 after 48 h; format: cell-based; conditions: ATCC10231, read-out: MIC90 (antimicrobial activity)
Procedure: (§4) Determination of Minimal Inhibitory Concentration (MIC90) Against Bacteria in Dormant […]
(§5) The selective compounds (SI ≥ 10) were tested against the mycobacterium in a dormant state. The cultures were thawed, diluted in Middlebrook 7H12 broth, and sonicated for 5 s. The cultures were diluted to obtain the concentration between […] and 2 × 10^6 CFU/mL. TwoHfold serial dilutions of the compounds were prepared in a volume of […] in white 96Hwell microtiter plates, followed by the addition of […] of the cell suspension. The microplate cultures were placed under anaerobic conditions (oxygen concentration less than 0.16%) by using an Anoxomat model WS8080 (MART Microbiology) followed by two cycles of evacuation and filling with a mixture of 10% hydrogen (H2), 5% carbon dioxide (CO2), and the balance with nitrogen (N2). An anaerobic indicator strip was placed inside the chamber to visually confirm the removal of oxygen. The plates were incubated at 37°C for 10 days and then transferred to an ambient gaseous condition (5% CO2H enriched air) incubator for a 28 h “recovery.” On day 11 (after the 28Hh aerobic recovery), we determined the luminescence and calculated the MIC90.4
(§6) To establish the spectrum activity, we determined the MIC90 against E. coli (ATCC 25922) and S. aureus (ATCC 29213) by measuring the optical density at 570 nm after 16 h of incubation in Mueller–Hinton II broth (Becton Dickinson, Sparks; Maryland, United States) and against C. albicans (ATCC 10231) at OD570 after 48 h in Cellgro RPMI 1640 medium (Mediatech Inc., Manassas, Virginia, United States). The MIC was defined as the lowest concentration resulting in 90% reduction in absorption relative to that of untreated control cultures.
(§7) Determination of Minimal Inhibitory Concentration Against Isogenic Monoresistant Strains

[2] = system: M. tuberculosis H37Rv (ATCC 27294); experiment: Time-kill curves (bactericidal kinetics); format: cell-based, Mycobacterium tuberculosis
[3] = Cytotoxicity against MRC-5 cell line; conditions: human, cytotoxicity IC50, MRC-5 cell line
[4] = system: Escherichia coli (ATCC 25922); experiment: Spectrum of activity, OD570 after 16 h; format: cell-based; conditions: ATCC25922, read-out: MIC90 (antimicrobial activity)
Procedure: as §4, §5, §6, §7

[5] = system: Staphylococcus aureus (ATCC 29213); experiment: Spectrum of activity, OD570 after 16 h; format: cell-based; conditions: ATCC29213, read-out: MIC90 (antimicrobial activity)
Procedure: as §4, §5, §6, §7

Mtb H37Rv (ATCC 27294) = experiment: Resazurin microtiter assay (REMA), MIC90 against bacteria in active state; format: cell-based; conditions: Mycobacterium tuberculosis
BALB/c mice [6] = experiment: Tolerability test in BALB/c mice and toxicological analysis; conditions: 10 days
[7] = system: mouse peripheral blood reticulocytes; conditions: 50, 100, 200 and 500 mg/kg by gavage, Swiss mice
M. tuberculosis H37Rv = experiment: Microarray gene expression analysis; format: cell-based, Mycobacterium tuberculosis; conditions: 4 h of exposure at 2× MIC, versus vehicle
[8] = system: cytochrome P450 isoforms (all isoforms tested); experiment: in vitro; conditions: human, microsomes
M. tuberculosis Erdman = experiment: Infection and treatment: efficacy against acute TB in mice; format: in vivo, mouse; conditions: 200 mg/kg in microemulsion, once daily oral gavage, 5 days/week, day 10 to 29 postinfection, BALB/c mice
BALB/c mice [9] = conditions: H&E, group treated with compound 8
[10] = system: M. tuberculosis H37Rv (ATCC 27294) in J774A.1 macrophages; experiment: Intramacrophage activity; format: cell-based, Mycobacterium tuberculosis
[11] = Caco-2 permeability assay; format: in vitro ADME; conditions: human, basolateral to apical
Procedure: as §1, §2, §3
(§8) of the mixture in a RED (Rapid Equilibrium Dialysis, Pierce) device against PBS and incubated on an orbital shaker for 4 h at 37°C. […] The samples were centrifuged and the supernatant was recovered and analyzed by Liquid chromatography–mass spectrometry (LCHMS)/MS. […]
(§9) the twoHday interval. […] Similarly, for basolateral to apical (B→A) permeability, the compound was added to the B side and the amount of permeation was determined on the A side. […]

Caco-2 cells = experiment: Caco-2 permeability assay; format: in vitro ADME
Procedure: as §1, §2, §3, §8, §9

[12] = 200 mg/kg daily oral, vs control group

## O=C(N/N=C/c1ccc2no[n+]([O-])c2c1)c1ccncc1 [Compound 8, (E)-6-((2-Isonicotinoylhydrazono)methyl)benzo[c][1,2,5]oxadiazole 1-Oxide]
Human plasma
  human plasma protein binding (% free): 46.5 % free
[1]
  MIC90: > 200 µM
[2]; after 48 h of exposure, 41.24 μM
  reduction of CFU (sterilization of cultures): ~6.7 log10
[2]; time-kill kinetic experiments up to 15 days
  bactericidal profile: bactericidal with an early bactericidal effect
[3]
  IC50: 147 µg/mL (≈ 519 µM)
[4]
  MIC90: > 200 µM
[5]
  MIC90: > 200 µM
Mtb H37Rv (ATCC 27294); actively replicating M. tuberculosis H37Rv, REMA, read-out: MIC90
  MIC90: 1.1 µM and 0.31 µg/mL
Mtb H37Rv (ATCC 27294); supplementary CSV, read-out: Mtb MIC90
  MIC90: 1.1 µM (≈ 0.312 µg/mL)
BALB/c mice [6]; 200 mg/kg daily oral gavage
  behavior parameters (hippocratic screening): No significant variation in the behavior
BALB/c mice [6]; [12]
  alanine aminotransferase in plasma: no significant differences
  alkaline phosphatase in plasma: no significant differences
  aspartate aminotransferase in plasma: no significant differences
  changes in the weight of organs (heart, lungs, spleen, kidneys, liver): No statistically significant difference
[7]
  genotoxicity (micronucleated reticulocytes): not genotoxic at any concentration tested
M. tuberculosis H37Rv
  effect on gene expression: significant upregulation in the majority of ribosomal genes as well as all genes encoding subunits of ATP synthase
[8]
  pIC50: < 4.82
M. tuberculosis Erdman
  Mtb colonies (CFU) in homogenized lungs: reduction of Mtb to undetectable levels; also recorded: no colonies were observed; also recorded: No detectable Mtb
BALB/c mice [9]
  histology of kidneys: morphologically normal
[10]
  intracellular inhibition: around 90%
[11]
  Papp B→A: 3.9 ×10⁻⁶ cm/s
Caco-2 cells
  Caco-2 permeability profile: good permeability profile
